Measured values reported in patent publication US12312641B2, “Sensitivity marker for antibody-drug conjugate” (priority 2018, dated 2025).
Where two headings read alike, the source gives them in different places.

Assays:
Type in all cases: cell-based
[1] = system: Human lung cancer cell line NCI-H1781; experiment: Cell proliferation inhibition test upon SLFN11 knockdown, NCI-H1781; settings: for Cell proliferation inhibitory effect upon SLFN11 knockdown: NCI-H1781 cell lines, SLFN11 siRNA vs Non-targeting Control; for Fold change (SLFN11/Non-targeting Control): ratio of IC50
Experimental: (§1) Human lung cancer cell line NCI-H1781 was obtained from ATCC and used for evaluation. NCI-H1781 cells suspended at 2×10^3 cells/mL in RPMI-1640 medium containing 10% bovine fetal serum were seeded in a 10 cm cell culture dish at 10 mL/dish. Twenty-four hours after seeding, 100 pmol of ON-TARGETplus SLFN11 siRNA (Dharmacon Inc.) or ON-TARGETplus Non-targeting Control Pool (Dharmacon Inc.) and 30 μL of Lipofectamine™ RNAiMAX Transfection Reagent (Thermo Fisher Scientific Inc.) were suspended in 1 mL of Opti-MEM medium, and the entire amount of the suspension was added to the medium. After 72 hours, the medium was removed and the dish was washed with PBS, then the cells were dissociated and recovered from the dish using 1 mL of TrypLE™ Express. The recovered cells were suspended at 5×10^4 cells/mL in RPMI-1640 medium containing 10% bovine fetal serum, and seeded in a 96-well cell culture plate at 100 μL/well. Twenty-four hours after seeding, the medium was replaced with a medium containing 100 nM, 33 nM, 11 nM, 3.7 nM, 1.2 nM, 0.41 nM, 0.13 nM, 0.045 nM, or 0 nM of compound (1) or antibody-drug conjugate (1) at 100 μL/well. The molar concentration of antibody-drug conjugate (1) was calculated by setting the average molecular weight to 150,000. Cells were all cultured at 37° C. under 5% CO2. After 72 hours from the medium replacement, ATPlite 1 step detection system (PerkinElmer Inc.) was added at 100 μL/well. The wells were incubated at room temperature for 10 minutes, then the luminescence intensity of each well was measured.
(§2) The cell growth inhibition rate (%) at each condition was calculated using the following calculation formula: Cell growth inhibition rate (%)=100×(1−T/C) • T: Average luminescence intensity of each well to which specimen was added • C: Average luminescence intensity of each well to which 0 nM specimen was added
(§3) The 50% inhibitory concentration at each condition was calculated by fitting to the following calculation formula: Cell viability (%)=(Emax−Emin)×Specimen concentration^γ/((Emax−50)/(50−Emin)×IC50^γ+Specimen concentration^γ)+Emin • Emax: maximum cell growth inhibition rate (%) • Emin: minimum cell growth inhibition rate (%) • IC50: 50% inhibitory concentration • γ: Hill coefficient
(§4) The fitting to the calculation formula was performed using SAS Systems Release 9.2 (SAS Institute Inc.).

[2] = system: Human breast cancer cell line MDA-MB-468; experiment: Cell proliferation inhibition test upon SLFN11 knockdown, MDA-MB-468
Experimental: as §1, with “breast” for “lung”, “MDA-MB-468” for “NCI-H1781”, “[…]” for “pmol”
as §2, §3, §4

[3] = system: Human breast cancer cell line HCC38; experiment: Cell proliferation inhibition test upon SLFN11 knockdown, HCC38; settings: for Cell proliferation inhibitory effect upon SLFN11 knockdown: HCC38 cell lines, SLFN11 siRNA vs Non-targeting Control; for Fold change (SLFN11/Non-targeting Control): ratio of IC50
Experimental: as §1, with “breast” for “lung”, “HCC38” for “NCI-H1781”, “2×10^5” for “2×10^3”
as §2
as §3, with “concentration^γ/((max−50)/(50−Emin)×IC50^γ+Specimen” for “concentration^γ/((Emax−50)/(50−Emin)×IC50^γ+Specimen”
as §4

CC[C@@]1(O)C(=O)OCc2c1cc1n(c2=O)Cc2c-1nc1cc(F)c(C)c3c1c2[C@@H](NC(=O)CO)CC3 [Compound (1)]
IC50 ([1]; Homo sapiens, NCI-H1781, 72 h, read-out: IC50 (nM) Non-targeting Control Pool): 3.3 nM
IC50 ([1]; Homo sapiens, NCI-H1781, 72 h, read-out: IC50 (nM) SLFN11 siRNA): 15 nM
Cell proliferation inhibitory effect upon SLFN11 knockdown [1]: attenuated by SLFN11 knockdown
Fold change (SLFN11/Non-targeting Control) ([1]; NCI-H1781 cells): 4.5
IC50 ([2]; Homo sapiens, MDA-MB-468, 72 h, read-out: IC50 (nM) Non-targeting Control Pool): 4.8 nM
IC50 ([2]; Homo sapiens, MDA-MB-468, 72 h, read-out: IC50 (nM) SLFN11 siRNA): 27.5 nM
Cell proliferation inhibitory effect upon SLFN11 knockdown ([2]; MDA-MB-468 cell lines, SLFN11 siRNA vs Non-targeting Control): attenuated by SLFN11 knockdown
Fold change (SLFN11/Non-targeting Control) ([2]; MDA-MB-468 cells, ratio of IC50): 5.7
Cell proliferation inhibitory effect upon SLFN11 knockdown [3]: attenuated by SLFN11 knockdown
Fold change (SLFN11/Non-targeting Control) ([3]; HCC38 cells): 2.6
IC50 ([3]; Homo sapiens, HCC38, 72 h, read-out: IC50 (nM) Non-targeting Control Pool): 1.6 nM
IC50 ([3]; Homo sapiens, HCC38, 72 h, read-out: IC50 (nM) SLFN11 siRNA): 4.2 nM

B1: antibody-drug conjugate (1): humanized anti-hTROP2 antibody (SEQ ID NO: 1 residues 20-470, SEQ ID NO: 2 residues 21-234) conjugated to the exatecan-derivative drug-linker via a thioether bond (conjugate, chains of the INN, looked up)
VH: QVQLVQSGAEVKKPGASVKVSCKASGYTFTTAGMQWVRQAPGQGLEWMGWINTHSGVPKYAEDFKGRVTISADTSTSTAYLQLSSLKSEDTAVYYCARSGFGSSYWYFDVWGQGTLVTVSS
VL: DIQMTQSPSSLSASVGDRVTITCKASQDVSTAVAWYQQKPGKAPKLLIYSASYRYTGVPSRFSGSGSGTDFTLTISSLQPEDFAVYYCQQHYITPLTFGQGTKLEIK
modifications: exatecan-derivative drug-linker
Cell proliferation inhibitory effect upon SLFN11 knockdown [1]: attenuated by SLFN11 knockdown
IC50 ([1]; NCI-H1781 cells, Non-targeting Control Pool, 72 hours, ATPlite, read-out: IC50 (nM) Non-targeting Control Pool): 8 nM
IC50 ([1]; NCI-H1781 cells, SLFN11 siRNA knockdown, 72 hours, ATPlite, read-out: IC50 (nM) SLFN11 siRNA): > 100 nM
Fold change (SLFN11/Non-targeting Control) ([1]; NCI-H1781 cells): >12.5
IC50 ([2]; MDA-MB-468 cells, Non-targeting Control Pool, 72 hours, ATPlite, read-out: IC50 (nM) Non-targeting Control Pool): > 100 nM
IC50 ([2]; MDA-MB-468 cells, SLFN11 siRNA knockdown, 72 hours, ATPlite, read-out: IC50 (nM) SLFN11 siRNA): > 100 nM
Cell proliferation inhibitory effect upon SLFN11 knockdown [3]: attenuated by SLFN11 knockdown
IC50 ([3]; HCC38 cells, Non-targeting Control Pool, 72 hours, ATPlite, read-out: IC50 (nM) Non-targeting Control Pool): 56.7 nM
IC50 ([3]; HCC38 cells, SLFN11 siRNA knockdown, 72 hours, ATPlite, read-out: IC50 (nM) SLFN11 siRNA): > 100 nM
Fold change (SLFN11/Non-targeting Control) ([3]; HCC38 cells): >1.8
